Assay results from US20240115521A1, “COMPOUNDS FOR THE TREATMENT OF MYCOBACTERIAL DISEASES” (priority 2022, published 2024).

Tests used:
intracellular BCG = assay: microbe, parasite or virus in culture; assay type: cell-based; conditions: Mycobacterium tuberculosis variant bovis BCG, read-out: Activity on intracellular BCG (% inhibition)
intracellular Mtb = assay: Inhibition of Mtb growth inside primary human monocytes (3H-Uridine); assay type: cell-based; conditions: Mycobacterium tuberculosis, Monocyte, all drugs tested at 20 μM
Experimental: FIGS. 1A & 1B show the structure and anti-mycobacterial activity of select troponoids. Shown are the structures (FIG. 1A) and calculated percent inhibitions of M. tuberculosis (Mtb) growth inside primary human monocytes by 4 selected troponoids (FIG. 1B).
Numerous troponoids have been synthesized and screened on Mtb and MAC and identified three with activities at a concentration of ≤5 μM. […] Briefly, primary monocytes were infected with mycobacteria (Mtb) for 4 hours, then co-cultured with indicated troponoids (2.5-20 μM) for 3 days. Then mammalian cells were lysed with saponin and residual mycobacteria quantified via ^3H-Uridine as previously described (Abate et al. 2015).

[1] = Human liver microsome assay; assay type: in vitro ADME; conditions: for half-life: human liver microsomes; for Stability in human liver microsomal studies: result in words
Source text: (§1) Because the murine model will be used for initial drug efficacy studies and our goal is to develop drugs for human use, in vitro liver microsomal studies we performed using both mouse and human liver microsomes.

Caco2 = Caco2 in vitro permeability assay; conditions: for Caco2 PappA > B: apical to basolateral; for Caco2 PappB > A: basolateral to apical; for GI absorption by Caco-2 in vitro testing: result in words
[2] = Caco2 in vitro permeability assay; conditions: human, Caco-2
[3] = Mouse liver microsome stability; assay type: in vitro ADME; conditions: result in words
Source text: as §1

SMILES: Cc1ccc(C(=O)Oc2cc(C(C)C)cccc2=O)cc1 [#847]
- inhibition at 20 µM (intracellular BCG): 28.8%

SMILES: O=C1Nc2ccccc2CCC1SC1CCc2ccccc2NC1=O (stereo not shown) [#846]
- inhibition at 20 µM (intracellular BCG): 0%

SMILES: CCCCCCS(=O)(=O)c1cccc(O)c(=O)c1O [#699]
- inhibition at 20 µM (intracellular BCG): 0%

SMILES: O=c1c(S)ccccc1-c1ccccc1 [#844]
- inhibition at 20 µM (intracellular BCG): 19.1%

SMILES: CCn1cc(C(=O)O)c(=O)c2cc(F)c(N3CCN(c4cccccc4=O)CC3)cc21 [#764]
- inhibition at 20 µM (intracellular BCG): 14.5%

SMILES: O=c1c(O)cccc(S)c1O [#701]
- inhibition at 20 µM (intracellular BCG): 38.8%

SMILES: COc1cc(-c2ccccc(S)c2=O)cc(OC)c1OC [#842]
- inhibition at 20 µM (intracellular BCG): 25%

SMILES: Cc1ccc(Sc2cccc(O)c(=O)c2O)cc1 [#838]
- inhibition at 20 µM (intracellular BCG): 29.3%

SMILES: COc1cc(-c2ccccc(SSc3ccccc(-c4cc(OC)c(OC)c(OC)c4)c3=O)c2=O)cc(OC)c1OC [#843]
- inhibition at 20 µM (intracellular BCG): 26.5%

SMILES: CCCCSc1ccc(SCCCC)c(O)c(=O)c1O [#694]
- inhibition at 20 µM (intracellular Mtb): 86.5%
- half-life [1]: 9.8 min
- Stability in human liver microsomal studies [1]: stable
- Caco2 PappA > B (Caco2): 5.83E−06 sec*cm^2
- Caco2 PappB > A (Caco2): 1.11E−04 sec*cm^2
- GI absorption by Caco-2 in vitro testing (Caco2): good GI absorption
- efflux ratio [2]: 19
- Stability in mice liver microsomal studies [3]: stable
- inhibition at 20 µM (intracellular BCG): 91.8%

SMILES: COc1ccc(-c2cc(=O)c3c(O)cc(O)cc3o2)cc1 [#861]
- inhibition at 20 µM (intracellular BCG): 0%

SMILES: COc1ccc(-c2ccccc(N)c2=O)cc1 [#762]
- inhibition at 20 µM (intracellular BCG): 10.8%

SMILES: Cc1cc(O)c(=O)c(O)cc1C(=O)N1CCSC1 [#712]
- inhibition at 20 µM (intracellular BCG): 32.1%

SMILES: O=C(O)COc1cc(O)c2c(=O)cc(-c3ccccc3)oc2c1 [#859]
- inhibition at 20 µM (intracellular BCG): 11.3%

SMILES: CC(C)c1nc(CN(C)C(=O)N[C@H](C(=O)N[C@@H](Cc2ccccc2)C[C@H](O)[C@H](Cc2ccccc2)NC(=O)OCc2cncs2)C(C)C)cs1 [Ritonavir, reference compound]
- half-life [1]: < 5 min

SMILES: CCCCCCSc1ccc(SCCCCCC)c(O)c(=O)c1O [#841]
- inhibition at 20 µM (intracellular Mtb): 91.5%
- half-life [1]: 7 min
- Stability in human liver microsomal studies [1]: stable
- Caco2 PappA > B (Caco2): 3.08E−06 sec*cm^2
- Caco2 PappB > A (Caco2): 5.18E−06 sec*cm^2
- GI absorption by Caco-2 in vitro testing (Caco2): good GI absorption
- efflux ratio [2]: 1.7
- Stability in mice liver microsomal studies [3]: stable
- inhibition at 20 µM (intracellular BCG): 83.5%

SMILES: O=c1cccccc1N1CCOCC1 [#765]
- inhibition at 20 µM (intracellular BCG): 24.3%

SMILES: CCCCCCSc1cccc(O)c(=O)c1O [#840]
- inhibition at 20 µM (intracellular Mtb): 89.4%
- half-life [1]: > 30 min
- Stability in human liver microsomal studies [1]: stable
- Caco2 PappA > B (Caco2): 1.45E−05 sec*cm^2
- Caco2 PappB > A (Caco2): 2.11E−04 sec*cm^2
- GI absorption by Caco-2 in vitro testing (Caco2): good GI absorption
- efflux ratio [2]: 14.6
- Stability in mice liver microsomal studies [3]: stable
- inhibition at 20 µM (intracellular BCG): 74.7%

SMILES: CCS(=O)(=O)N1CCN(C(=O)c2cc(O)c(=O)c(O)cc2C)CC1 [#802]
- inhibition at 20 µM (intracellular BCG): 0%

SMILES: O=c1cccccc1N1CCCC1 [#766]
- inhibition at 20 µM (intracellular BCG): 14%

SMILES: CC(=O)CC(c1ccccc1)c1c(O)c2ccccc2oc1=O (stereo not shown) [Warfarin, reference compound]
- Caco2 PappA > B (Caco2): 9.37E−05 sec*cm^2
- Caco2 PappB > A (Caco2): 2.70E−04 sec*cm^2

SMILES: O=C1Nc2ccccc2CCC1S (stereo not shown) [#845]
- inhibition at 20 µM (intracellular BCG): 9%

SMILES: Cc1ccc(S(=O)(=O)c2cccc(O)c(=O)c2O)cc1 [#697]
- inhibition at 20 µM (intracellular BCG): 0%

SMILES: CCCCSc1cccc(O)c(=O)c1O [#693]
- inhibition at 20 µM (intracellular BCG): 89.2%
